Results on 5 molecules are retold here after US20250221979A1, “NOVEL HETEROCYCLIC COMPOUND” (SHOUYAO HOLDINGS (BEIJING) CO., LTD., priority 2022, published 2025).

Structures are written as SMILES.

The target in one series is human MAT2A enzyme (Homo sapiens (Human), UniProt P31153). The experiment in a line: In vitro enzymatic inhibition activity assay on MAT2A (PiColorLock phosphate detection). It counts as biochemical. Conditions: purified human MAT2A 10 nM, ATP 50 μM, L-methionine 100 μM, 6 h at 23° C.; read-out: MAT2A inhibitory activity IC50. The procedure, abridged: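 IC50 came from an 8-point, 10-fold compound series that reduced phosphate release, measured by absorbance at 630 nm. Reactions ran 6 h at 23 °C with 10 nM human MAT2A, 50 μM ATP and 100 μM L-methionine in pH 7.5 Tris buffer containing Mg2+.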

For a further series, the system named is HCT116 MTAP−/− cells. The experiment in a line: Inhibition of proliferation of HCT116 MTAP-/- cells (Cell-Titer Glo, 7 days). In kind it is cell-based. Conditions: Homo sapiens, HCT-116, 168 h (7 days) incubation, read-out: HCT116 MTAP−/− antiproliferative activity IC50. The protocol: The MTAP deficient human colorectal cancer cell line HCT116 MTAP−/− was constructed using CRJSPR Cas9 technology and cultured in DMEM medium supplemented with 10% fetal bovine serum (FBS, purchased from Gibco) and 1% penicillin/streptomycin (P/S, purchased from Thermo Fisher Scientific) at 37° C. with 5% CO2. HCT116 MTAP−/− cells were plated in 96 well plates (#3917, purchased from CORNING) at a concentration of 200 cells/195 μL/well. After 24 h, the compounds were diluted in a 3-fold gradient starting at 10 mM with 100% DMSO (for a total of 10 concentrations), then 4 μL of each concentration was added to 96 μL of serum-free DMEM medium for dilution. 5 μL of diluted compound at each concentration was added to the plated cell suspension and the compound was incubated with the cells for 168 h (7 days) in a cell culture incubator. The medium was then removed and 25 μL of Cell-Titer Glo® (G7570, purchased from Promega) reagent was added. Chemiluminescence values were read on a BMG and data were processed using GraphPad Prism software to calculate IC50 values for inhibition of cell proliferation by the compounds.

Series [1] can be described thus: In vivo pharmacokinetic study in CD-1 mice. Conditions: male, mouse, single oral gavage dose of 10 mg/kg, plasma. The protocol: In vivo pharmacokinetic study in CD-1 mice
Twenty-four healthy adult male mice from Beijing Vital River Laboratory Animal Technology Co., Ltd. were used in the study.
CD-1 mice were administered with a single oral gavage dose of 10 mg/kg in a volume of 10 mL/kg at a concentration of 1 mg/mL.
The test article in this project is generally suspended in 0.5% hydroxypropylmethyl cellulose, 0.1% Tween 80 (W/V/V) aqueous solution at the concentration of 1 mg/mL.
Animals dosed by gavage were fasted overnight before the experiment from 16 h before dosing to 4 h after dosing. Blood was collected at 0.25, 0.5, 1, 2, 4, 6, 8, and 24 h after administration successively. The animals were lightly anesthetized with isoflurane. About 0.2 mL of whole blood was collected from the orbital venous plexus using a glass blood collection tube and placed in a sodium heparin anticoagulant tube. The sample was centrifuged at 5200 rpm for 5 min at 4° C. The plasma was transferred to a centrifuge tube and stored at −80° C. until analysis.
Analysis of plasma samples Test compounds and internal standards (warfarin or propranolol) were extracted from mouse plasma using an acetonitrile protein precipitation method and the extracts were analyzed by LC/MS/MS. The measured plasma concentration-time data of individual animals were analyzed using the non-compartmental model of WinNonlin (version 5.2.1, Pharsight) software to obtain the corresponding pharmacokinetic parameters: maximum (peak) plasma drug concentration Cmax; Time to peak Tmax; Half-life T1/2 and area under the plasma concentration-time curve extrapolated to infinite time AUC0-inf.

Chain of human MAT2A enzyme (P31153 whole entry): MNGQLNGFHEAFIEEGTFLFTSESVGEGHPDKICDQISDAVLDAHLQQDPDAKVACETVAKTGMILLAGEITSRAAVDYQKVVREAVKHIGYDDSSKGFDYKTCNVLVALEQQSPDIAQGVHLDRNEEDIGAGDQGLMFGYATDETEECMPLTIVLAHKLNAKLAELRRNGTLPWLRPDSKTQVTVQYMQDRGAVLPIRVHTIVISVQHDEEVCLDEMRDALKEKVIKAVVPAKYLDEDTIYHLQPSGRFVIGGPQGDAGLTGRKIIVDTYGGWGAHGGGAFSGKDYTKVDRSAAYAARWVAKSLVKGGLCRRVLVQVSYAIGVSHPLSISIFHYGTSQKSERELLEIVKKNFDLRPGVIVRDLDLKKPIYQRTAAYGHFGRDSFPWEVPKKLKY

Regarding `COC(=O)c1c(N)c2ccc(Br)cc2n(-c2ccc(N)cc2)c1=O` [Example 147, methyl 4-amino-1-(4-aminophenyl)-7-bromo-2-oxo-1,2-dihydroquinoline-3-carboxylate], the IC50 at human MAT2A enzyme worked out at 0.78 nM. Moreover, the IC50 in the series on HCT116 MTAP−/− cells was found to be 81.5 nM. Besides, in series [1], the AUC was found to be 24100 ng·h/mL, the Cmax is 2320 ng/mL, the Tmax worked out at 1.67 h and the half-life was 8.44 h.

`COC(=O)c1c(N)c2ccc(C(F)(F)F)nc2n(-c2cccc3cnccc23)c1=O` [Example 174, methyl 4-amino-1-(isoquinolin-5-yl)-2-oxo-7-(trifluoromethyl)-1,2-dihydro-1,8-naphthyridine-3-carboxylate]: the IC50 on human MAT2A enzyme is 5.12 nM. Further, the IC50 in the series on HCT116 MTAP−/− cells amounted to 79 nM. In series [1], the AUC worked out at 24500 ng·h/mL, the Cmax stood at 9540 ng/mL, the Tmax is 0.5 h and the half-life is 3.08 h.

As to `COC(=O)c1c(N)c2ccc(I)cc2n(-c2cccc3cnccc23)c1=O` [Example 199, methyl 4-amino-7-iodo-1-(isoquinolin-5-yl)-2-oxo-1,2-dihydroquinoline-3-carboxylate], the IC50 at human MAT2A enzyme is 3.57 nM. In the series on HCT116 MTAP−/− cells, the IC50 came out at 48.5 nM. Moreover, in series [1], the AUC is 24600 ng·h/mL, the Cmax came out at 4270 ng/mL, the Tmax is 2.5 h and the half-life is 2.98 h.

As for `COC(=O)c1c(N)c2ccc(Br)cc2n(-c2ccc([C@@H](C)O)cc2)c1=O` [Example 340, methyl 4-amino-7-bromo-1-(4-(1-(R)-hydroxyethyl)phenyl)-2-oxo-1,2-dihydroquinoline-3-carboxylate], the IC50 on human MAT2A enzyme came out at 1.44 nM; in the series on HCT116 MTAP−/− cells, 2.1 nM.

With `COC(=O)c1c(N)c2ccc(OC(F)(F)F)cc2n(-c2ccc([C@@H](C)O)cc2)c1=O` [Example 378, methyl 4-amino-1-(4-((1R)-1-hydroxyethyl)phenyl)-2-oxo-7-(trifluoromethoxy)-1,2-dihydroquinoline-3-carboxylate], the IC50 came out at 1.2 nM on human MAT2A enzyme and 1.5 nM in the series on HCT116 MTAP−/− cells.
